Experimental findings from patent publication US6906203B1, “Substituted 4H-chromene and analogs as activators of caspases and inducers of apoptosis and the use thereof” (Cytovia, Inc., priority 1999, dated 2005) are described below.

The subject of test [1] is ZR-75-1 cells. As to the kind of experiment: Caspase cascade activation assay (N-(Ac-DEVD)-N'-ethoxycarbonyl-R110 fluorogenic substrate) in ZR-75-1. Particulars: 24 h incubation; for EC50: read-out: Caspase potency EC50; for Caspase activity Ratio: ratio of net RFU of test compound to control. The class given is cell-based, Human. As to the method: (§1) Human breast cancer cell lines T47D and ZR-75-1 were grown according to media component mixtures designated by American Type Culture Collection +10% FCS (Life Technologies, Inc.), in a 5% CO2-95% humidity incubator at 37° C. T-47D and ZR-75-1 cells were maintained at a cell density between 30 and 80% confluency at a cell density of 0.1 to 0.6×10^6 cells/ml. Cells were harvested at 600×g and resuspended at 0.65×10^6 cells/ml into appropriate media +10% FCS . […] An aliquot of 45 μl of cells was added to a well of a 96-well microtiter plate containing 5 μl of a 10% DMSO in RPMI-1640 media solution without test compound as the control sample. The samples were mixed by agitation and then incubated at 37° C. for 24 h in a 5% CO2-95% humidity incubator. After incubation, the samples were removed from the incubator and 50 μl of a solution containing 20 μM of N-(Ac-DEVD)-N′-ethoxycarbonyl-R110 (SEQ ID NO: 1) fluorogenic substrate (Cytovia, Inc.; WO99/18856), 20% sucrose (Sigma), 20 mM DTT (Sigma), 200 mM NaCl (Sigma), 40 mM Na PIPES buffer pH 7.2, and 500 μg/ml lysolecithin (Calbiochem) was added. The samples were mixed by agitation and incubated at room temperature. Using a fluorescent plate reader (Model 1420 Wallac Instruments), an initial reading (T=0) was made approximately 1-2 min after addition of the substrate solution, employing excitation at 485 nm and emission at 530 nm, to determine the background fluorescence of the control sample. After the 3 h incubation, the samples were read for fluorescence as above (T=3 h).
(§2) The Relative Fluorescence Unit values (RFU) were used to calculate the sample readings as follows: RFU(T=3h)−Control RFU (T=0)=Net RFU(T=3h)
(§3) The EC50 (nM) was determined by a sigmoidal dose-response calculation (Prism 2.0, GraphPad Software Inc.).

The next test relates to T47D cells. Nature of the test: Cell cycle arrest by flow cytometry (propidium iodide), T47D. Particulars: 1 μM, 18 h. It counts as cell-based, Human. The procedure: (§4) T47D, ZR-75-1 breast cancer cell lines and PC-3, an androgen-independent prostate cancer cell line were maintained and harvested as described in Example 148. Jurkat T leukemia cells were grown in RPMI 1640 media (Life Technologies, Inc.) +10% FCS (Sigma Chemical Company) in a 5% CO2-95% humidity incubator at 37° C., and maintained at a cell density between 4 and 8×10^5 cells/ml. 1×10^6 cells were induced with 1 μM of 2-amino-3-cyano-7-dimethylamino-4-(3-methoxy-4,5-methylenedioxyphenyl)-4H-chromene or 2-amino-3-cyano-7-dimethylamino-4-(3,4-methylenedioxyphenyl)-4H-chromene for 18 h at 37° C. As a control, cells were also incubated with DMSO. Cells were harvested at 1200 rpm and washed twice with 5 mM EDTA/PBS. Cells were then resuspended in 300 μl EDTA/PBS and […] of 100% ethanol, vortexed and incubated at room temperature for 1 h. Samples were spun down at 12000 rpm for 5 min and the supernatant was removed. A solution containing 100 μg/ml of propidium iodide and 1 mg/ml of RNAse A (fresh) was added to the samples and incubated for 1 h at room temperature. Samples were then transferred to 12×75 mm polystyrene tubes and analysed on a flow cytometer. All flow cytometry analyses were performed on FACScalibur (Becton Dickinson) using Cell Quest analysis software.
A general note: In flow cytometry, cells or beads pass a laser one at a time.

Test [2] concerns T-47D cells. Nature of the test: Inhibition of cell proliferation (GI50), CellTiter 96 AQUEOUS One, T-47D. The class given is cell-based. Conditions: Homo sapiens, T47D, 48 h. As to the method: (§5) T-47D and ZR-75-1 cells were grown and harvested as in Example 148. An aliquot of 90 μl of cells ([…] cells/ml) was added to a well of a 96-well microtiter plate containing 10 μl of a 10% DMSO in RPMI-1640 media solution containing 1 nM to 100 μM of 2-amino-3-cyano-7-dimethylamino-4-(3-methoxy-4,5-methylenedioxyphenyl)-4H-chromene (Example 19) or other test compound (0.1 nM to 10 μM final). An aliquot of 90 μl of cells was added to a well of a 96-well microtiter plate containing 10 μl of a 10% DMSO in RPMI-1640 media solution without compound as the control sample for maximal cell proliferation (Amax). The samples were mixed by agitation and then incubated at 37° C. for 48 h in a 5% CO2-95% humidity incubator. […] Using an absorbance plate reader (Model 1420 Wallac Instruments), an initial reading (T=0) was made approximately 1-2 min after addition of the solution, employing absorbance at 490 nm. This determines the possible background absorbance of the test compounds. No absorbance for 2-amino-3-cyano-7-dimethylamino-4-(3-methoxy-4,5-methylenedioxyphenyl)-4H-chromene or its analogs was found at 490 nm. […]
(§6) The samples were mixed by agitation and then incubated at 37° C. for 0.5 h in a 5% CO2-95% humidity incubator. […] Absorbance was read as above, (AT=0) defining absorbance for initial cell number used as baseline in GI50 determinations.

A further test deals with PC-3 cells. As to the kind of experiment: Cell cycle arrest by flow cytometry (propidium iodide), PC-3. The class given is cell-based. Conditions: 1 μM, 18 h. As to the method:
as §4

Test [3] concerns ZR-75-1 cells. Nature of the test: Inhibition of cell proliferation (GI50), CellTiter 96 AQUEOUS One, ZR-75-1. The class given is cell-based. Particulars: Homo sapiens, ZR-75-1, 48 h. As to the method:
as §5, §6

Test [4] concerns T-47D cells. Nature of the test: Caspase cascade activation assay (N-(Ac-DEVD)-N'-ethoxycarbonyl-R110 fluorogenic substrate) in T-47D. The class given is cell-based, Human. Particulars: 24 h incubation; for EC50: read-out: Caspase potency EC50; for Caspase activity Ratio: ratio of net RFU of test compound to control. The procedure: as §1, §2, §3
The mark [5] stands for this setting: Homo sapiens, 0.016 to 1 μM final.
The mark [6] stands for this setting: Homo sapiens, T47D, 0.016 to 1 μM final.

Each structure is given as a SMILES string. “Also recorded” adds a separate entry of the source. Like-named read-outs stand apart in the source and are kept apart here.

What is called EC50 is the concentration at which the effect is half-maximal. The term GI50 denotes the concentration that inhibits growth by half.

Take `CN(C)c1ccc2c(c1)OC(N)=C(C#N)C2c1ccc2c(c1)OCO2` (stereo not shown) [Example 1, 2-Amino-3-cyano-7-dimethylamino-4-(3,4-methylenedioxyphenyl)-4H-chromene]: the EC50 with ZR-75-1 cells [1] (setting [5]) came to 60 nM. In the test on ZR-75-1 cells [1], the “Caspase activity Ratio” value was found to be 4.2. In addition, the Cell cycle arrest entry in the test on T47D cells was “progression and arrest in G2/M; also recorded: induce cell cycle arrest”; in the test with PC-3 cells (listed as 2-amino-3-cyano-7-dimethylamino-4-(3,4-methylenedioxyphenyl)-4-H-chromene), “progression and arrest in G2/M”; with PC-3 cells (listed as 2-amino-3-cyano-7-dimethylamino-4-(3,4-methylenedioxyphenyl)-4H-chromene) it was “induce cell cycle arrest”. In addition, the figures for the GI50 in the test on T-47D cells [2] and in the test on ZR-75-1 cells [3] were 100 nM and 10000 nM, respectively.
As to `Cc1ccc(C2C(C#N)=C(N)Oc3cc(N(C)C)ccc32)cc1[N+](=O)[O-]` (stereo not shown) [Example 4, 2-Amino-3-cyano-7-dimethylamino-4-(4-methyl-3-nitropheyl)-4H-chromene], the EC50 in the test on ZR-75-1 cells [1] (0.016 to 1 μM final) was 150 nM; with T-47D cells [4] (0.016 to 1 μM final) it was 200 nM. The “Caspase activity Ratio” value in the test on ZR-75-1 cells [1] was 6.6; in the test on T-47D cells [4], 6.0.
With `CN(C)c1ccc2c(c1)OC(N)=C(C#N)C2c1cccc([N+](=O)[O-])c1` (stereo not shown) [Example 38, 2-Amino-3-cyano-7-dimethylamino-4-(3-nitrophenyl)-4H-chromene], the EC50 is 22 nM in the test on ZR-75-1 cells [1] (setting [5]) and 45 nM in the test on T-47D cells [4] (setting [6]). In addition, the “Caspase activity Ratio” value with ZR-75-1 cells [1] is on record as 6.5; in the test with T-47D cells [4] it was 12.7.
Regarding `COc1cc(Br)c(C2C3=CC=C4N=C(C)C=C4C3OC(N)=C2C#N)cc1OC` (stereo not shown) [Example 96, 2-Amino-3-cyano-4-(2-bromo-4,5-dimethoxyphenyl)-8-methyl-4H-indolo[4,5-b]pyran], the “Caspase potency EC50 (nM)” value with ZR-75-1 cells [1] (0.016 to 1 μM final) and in the test with T-47D cells [4] (0.016 to 1 μM final) was “Inactive” in each case. Also, the “Caspase activity Ratio” value in the test with ZR-75-1 cells [1] and in the test on T-47D cells [4] was “Inactive” throughout.
As to `COc1cc(C2C(C#N)=C(N)Oc3cc4c(cc32)OCO4)cc2c1OCO2` (stereo not shown) [Example 14, 2-Amino-3-cyano-4-(3-methoxy-4,5-methylenedioxyphenyl)-6,7-methylenedioxy-4H-chromene], the EC50 with ZR-75-1 cells [1] (setting [5]) was found to be 96 nM; in the test on T-47D cells [4] (setting [6]) it was 172 nM. Besides, the “Caspase activity Ratio” value in the test with ZR-75-1 cells [1] was 9.0; in the test on T-47D cells [4], 5.5.
Regarding `COc1cc(Br)c(C2C3=CC=C4N=CC=C4C3OC(N)=C2C#N)cc1OC` (stereo not shown) [Example 95, 2-Amino-3-cyano-4-(2-bromo-4,5-dimethoxyphenyl)-4H-indolo[4,5-b]pyran], the EC50 with ZR-75-1 cells [1] (setting [5]) turned out to be 364 nM; in the test with T-47D cells [4] (setting [6]), 720 nM. Besides, the “Caspase activity Ratio” value in the test with ZR-75-1 cells [1] is recorded as 5.1; in the test on T-47D cells [4], 3.8.
On the same counts, the results for `COc1cc(C2C3=CC=C4N=CC=C4C3OC(N)=C2C#N)cc(Br)c1OC` (stereo not shown) [Example 97, 2-Amino-3-cyano-4-(3-bromo-4,5-dimethoxyphenyl)-4H-indolo[4,5-b]pyran] are 7 nM, 6 nM, 5.0 and 2.7.
The corresponding values for `COc1cc(C2C3=CC=C4N=CC=C4C3OC(N)=C2C#N)cc2c1OCO2` (stereo not shown) [Example 94, 2-Amino-3-cyano-4-(3-methoxy-4,5-methylenedioxyphenyl)-4H-indolo[4,5-b]pyran] are 25 nM, 49 nM, 7.8 and 6.5.
On the same counts, the results for `COc1cc(C2C3=CC=C4N=CC=C4C3OC(N)=C2C#N)cc(OC)c1OC` (stereo not shown) [Example 99, 2-Amino-3-cyano-4-(3,4,5-trimethoxyphenyl)-4H-indolo[4,5-b]pyran] are 23 nM, 36 nM, 4.3 and 2.8.
For `COc1cc(C2C(C#N)=C(N)Oc3c2ccc2ccccc32)cc(Br)c1OC` (stereo not shown) [Example 103, 2-Amino-3-cyano-4-(3-bromo-4,5-dimethoxyphenyl)-4H-naphtho[1,2-b]pyran], the EC50 in the test with ZR-75-1 cells [1] (setting [5]) came to 12 nM; with T-47D cells [4] (setting [6]), 17 nM. The “Caspase activity Ratio” value in the test on ZR-75-1 cells [1] came to 4.2; with T-47D cells [4] it was 2.2.
